From patent publication US20170290774A1, “NEUROKININ-1 RECEPTOR ANTAGONIST COMPOSITION FOR TREATMENT OF DISEASES AND CONDITIONS OF THE RESPIRATORY TRACT” (PLUS VITECH, S.L., priority 2014, published 2017)

Key:
[1] = molecular target: T1, CYP3A4 (Homo sapiens, UniProt P08684); settings: human hepatic microsomes; cited from earlier work
T1 construct: In vitro studies in which human hepatic microsomes were used; from tissue; host or cells: human hepatic (liver) microsomes

[2] = system: TGFβ2; experiment: Immunohistochemistry of TGFβ2 in respiratory tract tissue of sodium hypochlorite aerosol-treated rabbits; format: in vivo, New Zealand albino rabbits
Text: It is known that the factors TGF-α, TGF-β 1, TGF-β 2, TGF-β 3, SPARC, MMP-3; MMP-7, MMP-9, MMP-11, MMP-13 and MMP-14, TGF-β, NF-kB, EGF, MMP-9, VEGF and TNF-α which are produced by lung cells (pneumocytes, fibroblasts and vascular endothelial cells) and inflammatory cells (macrophages, lymphocytes and polymorphonuclear leukocytes) are involved in the pathophysiology and development of said respiratory tract diseases. […] Herein, 27 New Zealand albino rabbits (New Zealand White Rabbit) with an initial average weight about 3 kg were used in this example. All subjects were administered an aerosol of a solution consisting of a mixture of water and sodium hypochlorite (35 g sodium hypochlorite per liter of water) at a rate of 5 mL of said solution by inhalation three times a day for 7 days (days 1 to 7 of experimentation). Subsequently, from days 3 to 7, a group of 3 rabbits (Group 1) was administered an oral dose of 10 mg/kg body weight per day, another group of 3 rabbits (Group 2) was administered an oral dose of 40 mg/kg body weight per day, a third group (Group 3) was administered an oral dose of 80 mg/kg body weight per day and a fourth group (Group 4) was administered an oral dose of 100 mg/kg body weight per day. […] This mixture was administered as an aerosol by inhalation, also from days 3 to 7, to a group of 3 rabbits (group 5) at a dose of 0.05 mg/kg body weight per day, to another group of three rabbits (Group 6) at a dose of 0.1 mg/kg body weight per day, to another group of three rabbits (Group 7) at a dose of 0.2 mg/kg body weight per day and to another group of three rabbits (Group 8) at a dose of 0.4 mg/kg body weight per day. A placebo consisting only of olive oil was administered from days 3 to 7 to a control group of 3 rabbits (placebo group). In parallel, 3 rabbits were kept under identical conditions but were not administered any treatment nor the aforementioned sodium hypochlorite solution (control group). […] On day 7 of the experiment all animals were euthanized and necropsied. […] Samples were taken at the peripheral level of the lung parenchyma, just below the pleural surface. Tissue samples were also taken from the nasal cavity, pharynx, larynx and bronchi. Immunohistochemistry studies were performed for all samples to evaluate the levels of the markers TGF-α, TGF-β 1, TGF-β 2, TGF-β 3 SPARC, MMP-3; MMP-7, MMP-9, MMP-11, MMP-14, TGF-β, TNF-α and VEGF. In said immunohistochemistry studies, a sample of each sample was dehydrated by treatment with increasing concentrations of ethanol and finally xylene. Subsequently said dried samples were embedded in paraffin, thus creating a block. Said paraffin blocks were cut on a microtome to a thickness of 5 μm, and the resulting sections (slices) were placed on slides suitable for conducting immunohistochemistry techniques. Subsequently, the sections were deparaffinised by immersion in xylene and then rehydrated through immersion in a series of solutions containing decreasing concentrations of ethanol and, finally, water. […] The samples were then allowed to cool to room temperature over 10 minutes. Endogenous peroxidase activity was blocked by treatment with 3% hydrogen peroxide over 30 min at room temperature. […] In order to verify the expression of NK1 receptors, the cell samples were incubated in the presence of anti-NK1 antibodies ([…], Sigma-Aldrich) diluted 1:1000 at 4° C. overnight. After this time they were washed in 0.05M Tris buffer at room temperature. Subsequently, Envision System-HRP (Dako) reagents were added for 30 min at room temperature. Once this time had expired, the samples were again washed with 0.05 M Tris buffer, and immunoreactivity was visualized by light microscopy with a chromogenic solution with 3,3'-diaminobenzidine (DAB+; Dako, USA). In order to differentiate the cell nuclei, these were lightly stained with haematoxylin. Samples that were not incubated with the primary antibody, but wherein this was replaced by a non-immune serum were used as negative controls. […]

T1 sequence (P08684 whole entry): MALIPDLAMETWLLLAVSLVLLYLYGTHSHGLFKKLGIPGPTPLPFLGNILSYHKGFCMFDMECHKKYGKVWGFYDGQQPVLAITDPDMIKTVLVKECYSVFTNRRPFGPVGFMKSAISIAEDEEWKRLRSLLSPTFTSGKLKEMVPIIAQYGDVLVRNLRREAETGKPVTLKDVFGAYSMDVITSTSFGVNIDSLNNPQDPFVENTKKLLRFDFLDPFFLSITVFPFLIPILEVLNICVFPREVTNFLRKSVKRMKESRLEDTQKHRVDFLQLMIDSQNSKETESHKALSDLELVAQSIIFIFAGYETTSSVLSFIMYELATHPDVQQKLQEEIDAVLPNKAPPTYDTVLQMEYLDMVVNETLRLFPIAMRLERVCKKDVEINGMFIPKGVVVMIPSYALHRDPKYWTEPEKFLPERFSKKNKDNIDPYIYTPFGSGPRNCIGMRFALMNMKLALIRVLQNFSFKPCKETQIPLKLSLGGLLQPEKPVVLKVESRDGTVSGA

SMILES: C[C@@H](OC1OCCN(Cc2nc(=O)[nH][nH]2)C1c1ccc(F)cc1)c1cc(C(F)(F)F)cc(C(F)(F)F)c1 (stereo in doubt) [Aprepitant, 5-([(2R,3S)-2-((R)-1-[3,5-bis(trifluoromethyl)phenyl]ethoxy)-3-(4-fluorophenyl)morpholino]methyl)-1H-1,2,4-triazol-3(2H)-one]
- metabolising enzyme [1]: principally metabolized by CYP3A4
- Percent increase in TGFβ2 with respect to the control group ([2]; bronchial tissue, Group 1, oral 10 mg/kg per day): 1,342.12%
- Percent increase in TGFβ2 with respect to the control group ([2]; bronchial tissue, Group 2, oral 40 mg/kg per day): 1,008.32%
- Percent increase in TGFβ2 with respect to the control group ([2]; bronchial tissue, Group 3, oral 80 mg/kg per day): 878.34%
- Percent increase in TGFβ2 with respect to the control group ([2]; bronchial tissue, Group 4, oral 100 mg/kg per day): 457.45%
- % Med G5/C: percent increase in marker TGFβ2 with respect to the control group ([2]; bronchial tissue, Group 5): 1,209.34%
- % Med G6/C: percent increase in marker TGFβ2 with respect to the control group ([2]; bronchial tissue, Group 6): 878.45%
- % Med G7/C: percent increase in marker TGFβ2 with respect to the control group ([2]; bronchial tissue, Group 7): 328.45%
- % Med G8/C: percent increase in marker TGFβ2 with respect to the control group ([2]; bronchial tissue, Group 8): 126.45%
- Percent increase in TGFβ2 with respect to the control group ([2]; laryngeal tissue, Group 1, oral 10 mg/kg per day): 1,789.56%
- Percent increase in TGFβ2 with respect to the control group ([2]; laryngeal tissue, Group 2, oral 40 mg/kg per day): 1,398.89%
- Percent increase in TGFβ2 with respect to the control group ([2]; laryngeal tissue, Group 3, oral 80 mg/kg per day): 989.89%
- Percent increase in TGFβ2 with respect to the control group ([2]; laryngeal tissue, Group 4, oral 100 mg/kg per day): 816.89%
- Percent increase in TGFβ2 with respect to the control group ([2]; laryngeal tissue, Group 5, inhalation 0.05 mg/kg per day): 1,506.89%
- Percent increase in TGFβ2 with respect to the control group ([2]; laryngeal tissue, Group 6, inhalation 0.1 mg/kg per day): 996.89%
- Percent increase in TGFβ2 with respect to the control group ([2]; laryngeal tissue, Group 7, inhalation 0.2 mg/kg per day): 560.38%
- Percent increase in TGFβ2 with respect to the control group ([2]; laryngeal tissue, Group 8, inhalation 0.4 mg/kg per day): 120.23%
- Percent increase in TGFβ2 with respect to the control group ([2]; lung tissue, Group 1, oral 10 mg/kg per day): 775.23%
- Percent increase in TGFβ2 with respect to the control group ([2]; lung tissue, Group 2, oral 40 mg/kg per day): 582.05%
- Percent increase in TGFβ2 with respect to the control group ([2]; lung tissue, Group 3, oral 80 mg/kg per day): 475.25%
- Percent increase in TGFβ2 with respect to the control group ([2]; lung tissue, Group 4, oral 100 mg/kg per day): 438.55%
- Percent increase in TGFβ2 with respect to the control group ([2]; lung tissue, Group 5, inhalation 0.05 mg/kg per day): 797.78%
- Percent increase in TGFβ2 with respect to the control group ([2]; lung tissue, Group 6, inhalation 0.1 mg/kg per day): 338.44%
- Percent increase in TGFβ2 with respect to the control group ([2]; lung tissue, Group 7, inhalation 0.2 mg/kg per day): 198.92%
- Percent increase in TGFβ2 with respect to the control group ([2]; lung tissue, Group 8, inhalation 0.4 mg/kg per day): 125.88%
- Percent increase in TGFβ2 with respect to the control group ([2]; nasal cavity tissue, Group 1, oral 10 mg/kg per day): 1,838.85%
- Percent increase in TGFβ2 with respect to the control group ([2]; nasal cavity tissue, Group 2, oral 40 mg/kg per day): 1,469.70%
- Percent increase in TGFβ2 with respect to the control group ([2]; nasal cavity tissue, Group 3, oral 80 mg/kg per day): 1,290.84%
- Percent increase in TGFβ2 with respect to the control group ([2]; nasal cavity tissue, Group 4, oral 100 mg/kg per day): 1,151.85%
- Percent increase in TGFβ2 with respect to the control group ([2]; nasal cavity tissue, Group 5, inhalation 0.05 mg/kg per day): 1,451.21%
- Percent increase in TGFβ2 with respect to the control group ([2]; nasal cavity tissue, Group 6, inhalation 0.1 mg/kg per day): 825.63%
- Percent increase in TGFβ2 with respect to the control group ([2]; nasal cavity tissue, Group 7, inhalation 0.2 mg/kg per day): 252.52%
- Percent increase in TGFβ2 with respect to the control group ([2]; nasal cavity tissue, Group 8, inhalation 0.4 mg/kg per day): 136.09%
- Percent increase in TGFβ2 with respect to the control group ([2]; pharyngeal tissue, Group 1, oral 10 mg/kg per day): 1,575.67%
- Percent increase in TGFβ2 with respect to the control group ([2]; pharyngeal tissue, Group 2, oral 40 mg/kg per day): 1,235.45%
- Percent increase in TGFβ2 with respect to the control group ([2]; pharyngeal tissue, Group 3, oral 80 mg/kg per day): 980.65%
- Percent increase in TGFβ2 with respect to the control group ([2]; pharyngeal tissue, Group 4, oral 100 mg/kg per day): 780.54%
- Percent increase in TGFβ2 with respect to the control group ([2]; pharyngeal tissue, Group 5, inhalation 0.05 mg/kg per day): 1,202.46%
- Percent increase in TGFβ2 with respect to the control group ([2]; pharyngeal tissue, Group 6, inhalation 0.1 mg/kg per day): 725.63%
- Percent increase in TGFβ2 with respect to the control group ([2]; pharyngeal tissue, Group 7, inhalation 0.2 mg/kg per day): 252.52%
- Percent increase in TGFβ2 with respect to the control group ([2]; pharyngeal tissue, Group 8, inhalation 0.4 mg/kg per day): 136.09%
